Measured values from patent publication US6737383B1, “Herbicidal oxadiazolidines” (priority 1999, dated 2004).

How the values were obtained:
bedstraw = assay: Test B pre/postemergence bedstraw; assay type: in vivo, Galium aparine
Outline: (§1)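 Test chemicals in a non-phytotoxic solvent mixture with surfactant were sprayed preemergence onto planted seeds and postemergence onto plants 2 to 18 cm tall (1- to 4-leaf stage). After twelve to sixteen days in a greenhouse, injury was visually rated against untreated controls from 0 (no effect) to 10 (complete control).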

blackgrass = assay: Test B pre/postemergence blackgrass; assay type: in vivo, Alopecurus myosuroides
Outline: as §1

surinam grass = assay: Test B pre/postemergence surinam grass; assay type: in vivo, Brachiaria decumbens
Outline: as §1

cocklebur = assay: Test B pre/postemergence cocklebur; assay type: in vivo, Xanthium strumarium
Outline: as §1

crabgrass = assay: Test B pre/postemergence crabgrass; assay type: in vivo, Digitaria sanguinalis
Outline: as §1

giant foxtail = assay: Test B pre/postemergence giant foxtail; assay type: in vivo, Setaria faberii
Outline: as §1

morningglory = assay: Test B pre/postemergence morningglory; assay type: in vivo, Ipomoea hederacea
Outline: as §1

pigweed = assay: Test B pre/postemergence pigweed; assay type: in vivo, Amaranthus retroflexus
Outline: as §1

soybean = assay: Test B pre/postemergence soybean; assay type: in vivo, Glycine max
Outline: as §1

velvetleaf = assay: Test B pre/postemergence velvetleaf; assay type: in vivo, Abutilon theophrasti
Outline: as §1

wheat = assay: Test B pre/postemergence wheat; assay type: in vivo, Triticum aestivum
Outline: as §1

wild oat = assay: Test B pre/postemergence wild oat; assay type: in vivo, Avena fatua
Outline: as §1

purple nutsedge = assay: Test B pre/postemergence purple nutsedge; assay type: in vivo, Cyperus rotundus
Outline: as §1

rice = assay: Test B flood test rice; assay type: in vivo, Oryza sativa
Outline: (§2)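 Flood test on plants grown to the 2-leaf stage; treated plants kept in greenhouse twelve to sixteen days, then visually rated against controls on a 0 (no effect) to 10 (complete control) scale.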

smallflower flatsedge = assay: Test B flood test smallflower flatsedge; assay type: in vivo, Cyperus difformis
Outline: as §2

bamyardgrass = assay: Test B flood test barnyardgrass; assay type: in vivo, Echinochloa crus-galli
Outline: as §2

[1] = Postemergence, Rate 125 g/ha, scale of 0 to 10 where 0 is no effect and 10 is complete control
[2] = Preemergence, Rate 31 g/ha, visual rating, scale 0 to 10 (0 no effect, 10 complete control)
[3] = Preemergence, Rate 62 g/ha, scale 0 to 10 (0 no effect, 10 complete control)
[4] = Preemergence, Rate 125 g/ha, 0 is no effect, 10 is complete control
[5] = Preemergence, Rate 250 g/ha, scale 0 to 10, 0 is no effect, 10 is complete control
[6] = Preemergence, Rate 500 g/ha, scale 0 to 10 (0 no effect, 10 complete control)
[7] = Rate 31 g/ha, Postemergence, scale 0 to 10
[8] = Rate 62 g/ha, Postemergence, scale of 0 to 10 where 0 is no effect and 10 is complete control
[9] = Rate 250 g/ha, Postemergence, scale 0 to 10, 0 is no effect, 10 is complete control
[10] = Rate 500 g/ha, Postemergence, scale 0 to 10
[11] = Postemergence (flood test species), Rate 125 g/ha, scale of 0 to 10 where 0 is no effect and 10 is complete control
[12] = Rate 31 g/ha, Postemergence section (flood test species), scale 0 to 10
[13] = Rate 62 g/ha, Postemergence section, flood test species, scale of 0 to 10 where 0 is no effect and 10 is complete control
[14] = Rate 62 g/ha, headed Pre-emergence (flood test species), scale 0 to 10 (0 no effect, 10 complete control)
[15] = Rate 125 g/ha, Pre-emergence, flood test species, scale 0 to 10 where 0 is no effect and 10 is complete control
[16] = Rate 250 g/ha, Postemergence (flood test), scale 0 to 10, 0 is no effect, 10 is complete control
[17] = Rate 250 g/ha, Pre-emergence, flood-test species, scale 0 to 10, 0 is no effect, 10 is complete control
[18] = Rate 500 g/ha, headed Pre-emergence (flood test species), scale 0 to 10 (0 no effect, 10 complete control)
[19] = Rate 500 g/ha, listed under Postemergence (flood test species), scale 0 to 10

SMILES: C=CCn1c(=O)on(C(=O)N(c2ccc(F)cc2)C(C)C)c1=O [Compound 146]
- Bedstraw plant response rating (bedstraw; [1]): 6
- Bedstraw plant response rating (bedstraw; [2]): 0
- Bedstraw plant response rating (bedstraw; [3]): 9
- Bedstraw plant response rating (0 to 10 scale) (bedstraw; [4]): 9
- Bedstraw plant response rating (bedstraw; [5]): 10
- Bedstraw plant response rating (bedstraw; [6]): 7
- Bedstraw plant response rating (bedstraw; [7]): 0
- Bedstraw plant response rating (bedstraw; [8]): 2
- Plant response rating, Bedstraw (bedstraw; [9]): 7
- Bedstraw plant response rating (bedstraw; Rate 500 g/ha, Postemergence, scale 0 to 10, 0 no effect, 10 complete control): 8
- Blackgrass plant response rating (blackgrass; [1]): 8
- Blackgrass plant response rating (blackgrass; [2]): 7
- Blackgrass plant response rating (blackgrass; [3]): 8
- Blackgrass plant response rating (0 to 10 scale) (blackgrass; [4]): 10
- Blackgrass plant response rating (blackgrass; [5]): 10
- Blackgrass plant response rating (blackgrass; [6]): 10
- Blackgrass plant response rating (blackgrass; [7]): 4
- Blackgrass plant response rating (blackgrass; [8]): 8
- Plant response rating, Blackgrass (blackgrass; [9]): 8
- Blackgrass plant response rating (blackgrass; [10]): 8
- B. signalgrass plant response rating (surinam grass; [1]): 8
- B. signalgrass plant response rating (surinam grass; [2]): 7
- B. signalgrass plant response rating (surinam grass; [3]): 9
- B. signalgrass plant response rating (0 to 10 scale) (surinam grass; [4]): 9
- B. signalgrass plant response rating (surinam grass; [5]): 10
- B. signalgrass plant response rating (surinam grass; [6]): 10
- B. signalgrass plant response rating (surinam grass; [7]): 0
- B. signalgrass plant response rating (surinam grass; [8]): 4
- Plant response rating, B. signalgrass (surinam grass; [9]): 8
- B. signalgrass plant response rating (surinam grass; Rate 500 g/ha, Postemergence, scale of 0 to 10 where 0 is no effect and 10 is complete control): 9
- Cocklebur plant response rating (cocklebur; [1]): 2
- Cocklebur plant response rating (cocklebur; [2]): 0
- Cocklebur plant response rating (cocklebur; [3]): 0
- Cocklebur plant response rating (0 to 10 scale) (cocklebur; [4]): 0
- Cocklebur plant response rating (cocklebur; [5]): 0
- Cocklebur plant response rating (cocklebur; [6]): 0
- Cocklebur plant response rating (cocklebur; [7]): 0
- Cocklebur plant response rating (cocklebur; [8]): 2
- Plant response rating, Cocklebur (cocklebur; [9]): 3
- Cocklebur plant response rating (cocklebur; [10]): 4
- Crabgrass plant response rating (crabgrass; [1]): 9
- Crabgrass plant response rating (crabgrass; [2]): 5
- Crabgrass plant response rating (crabgrass; [3]): 8
- Crabgrass plant response rating (0 to 10 scale) (crabgrass; [4]): 8
- Crabgrass plant response rating (crabgrass; [5]): 9
- Crabgrass plant response rating (crabgrass; [6]): 10
- Crabgrass plant response rating (crabgrass; [7]): 5
- Crabgrass plant response rating (crabgrass; [8]): 8
- Plant response rating, Crabgrass (crabgrass; [9]): 9
- Crabgrass plant response rating (crabgrass; [10]): 9
- Giant foxtail plant response rating (giant foxtail; [1]): 9
- Giant foxtail plant response rating (giant foxtail; [2]): 9
- Giant foxtail plant response rating (giant foxtail; [3]): 10
- Giant foxtail plant response rating (0 to 10 scale) (giant foxtail; [4]): 10
- Giant foxtail plant response rating (giant foxtail; [5]): 10
- Giant foxtail plant response rating (giant foxtail; [6]): 10
- Giant foxtail plant response rating (giant foxtail; [7]): 3
- Giant foxtail plant response rating (giant foxtail; [8]): 8
- Plant response rating, Giant foxtail (giant foxtail; [9]): 9
- Giant foxtail plant response rating (giant foxtail; [10]): 9
- Morningglory plant response rating (morningglory; [1]): 5
- Morningglory plant response rating (morningglory; [2]): 0
- Morningglory plant response rating (morningglory; [3]): 2
- Morningglory plant response rating (0 to 10 scale) (morningglory; [4]): 3
- Morningglory plant response rating (morningglory; [5]): 3
- Morningglory plant response rating (morningglory; [6]): 4
- Morningglory plant response rating (morningglory; [7]): 2
- Morningglory plant response rating (morningglory; [8]): 3
- Plant response rating, Morningglory (morningglory; [9]): 8
- Morningglory plant response rating (morningglory; [10]): 9
- Redroot pigweed plant response rating (pigweed; [1]): 6
- Redroot pigweed plant response rating (pigweed; [2]): 10
- Redroot pigweed plant response rating (pigweed; [3]): 10
- Redroot pigweed plant response rating (0 to 10 scale) (pigweed; [4]): 10
- Redroot pigweed plant response rating (pigweed; [5]): 10
- Redroot pigweed plant response rating (pigweed; [6]): 10
- Redroot pigweed plant response rating (pigweed; [7]): 0
- Redroot pigweed plant response rating (pigweed; [8]): 4
- Plant response rating, Redroot pigweed (pigweed; [9]): 6
- Redroot pigweed plant response rating (pigweed; [10]): 8
- Soybean plant response rating (soybean; [1]): 6
- Soybean plant response rating (soybean; [2]): 0
- Soybean plant response rating (soybean; [3]): 0
- Soybean plant response rating (0 to 10 scale) (soybean; [4]): 0
- Soybean plant response rating (soybean; [5]): 2
- Soybean plant response rating (soybean; [6]): 4
- Soybean plant response rating (soybean; [8]): 3
- Plant response rating, Soybean (soybean; [9]): 6
- Soybean plant response rating (soybean; [10]): 8
- Velvetleaf plant response rating (velvetleaf; [1]): 2
- Velvetleaf plant response rating (velvetleaf; [2]): 3
- Velvetleaf plant response rating (velvetleaf; [3]): 7
- Velvetleaf plant response rating (0 to 10 scale) (velvetleaf; [4]): 7
- Velvetleaf plant response rating (velvetleaf; [5]): 8
- Velvetleaf plant response rating (velvetleaf; [6]): 8
- Velvetleaf plant response rating (velvetleaf; [8]): 0
- Plant response rating, Velvetleaf (velvetleaf; [9]): 6
- Velvetleaf plant response rating (velvetleaf; [10]): 6
- Wheat plant response rating (wheat; [1]): 2
- Wheat plant response rating (wheat; [2]): 0
- Wheat plant response rating (wheat; [3]): 2
- Wheat plant response rating (0 to 10 scale) (wheat; [4]): 2
- Wheat plant response rating (wheat; [5]): 8
- Wheat plant response rating (wheat; [6]): 8
- Wheat plant response rating (wheat; [8]): 0
- Plant response rating, Wheat (wheat; [9]): 5
- Wheat plant response rating (wheat; [10]): 6
- Wild oats plant response rating (wild oat; [1]): 3
- Wild oats plant response rating (wild oat; [2]): 1
- Wild oats plant response rating (wild oat; [3]): 9
- Wild oats plant response rating (0 to 10 scale) (wild oat; [4]): 10
- Wild oats plant response rating (wild oat; [5]): 10
- Wild oats plant response rating (wild oat; [6]): 10
- Wild oats plant response rating (wild oat; [8]): 2
- Plant response rating, Wild oats (wild oat; [9]): 6
- Wild oats plant response rating (wild oat; [10]): 7
- Nutsedge plant response rating (purple nutsedge; [1]): 0
- Nutsedge plant response rating (purple nutsedge; [2]): 0
- Nutsedge plant response rating (purple nutsedge; [3]): 0
- Nutsedge plant response rating (0 to 10 scale) (purple nutsedge; [4]): 0
- Nutsedge plant response rating (purple nutsedge; [5]): 0
- Nutsedge plant response rating (purple nutsedge; [6]): 3
- Nutsedge plant response rating (purple nutsedge; [7]): 0
- Nutsedge plant response rating (purple nutsedge; [8]): 0
- Plant response rating, Nutsedge (purple nutsedge; [9]): 0
- Nutsedge plant response rating (purple nutsedge; [10]): 6
- Rice plant response rating (rice; [11]): 0
- Rice plant response rating (rice; [12]): 0
- Rice plant response rating (rice; [13]): 0
- Rice plant response rating (rice; [14]): 0
- Rice plant response rating (rice; [15]): 0
- Plant response rating, Rice (rice; [16]): 2
- Rice plant response rating (rice; [17]): 0
- Plant response rating, Rice (rice; [18]): 0
- Rice plant response rating (rice; [19]): 7
- S. Flatsedge plant response rating (smallflower flatsedge; [11]): 0
- S. Flatsedge plant response rating (smallflower flatsedge; [13]): 0
- S. Flatsedge plant response rating (smallflower flatsedge; [14]): 0
- S. Flatsedge plant response rating (smallflower flatsedge; [15]): 0
- Plant response rating, S. Flatsedge (smallflower flatsedge; [16]): 3
- S. Flatsedge plant response rating (smallflower flatsedge; [17]): 0
- S. Flatsedge plant response rating (smallflower flatsedge; [19]): 9
- S. Flatsedge plant response rating (smallflower flatsedge; Rate 500 g/ha, Pre-emergence, flood test species, scale 0 to 10 (0 no effect, 10 complete control)): 1
- Barnyardgrass plant response rating (bamyardgrass; [11]): 0
- Barnyardgrass plant response rating (bamyardgrass; [12]): 0
- Barnyardgrass plant response rating (bamyardgrass; [13]): 0
- Barnyardgrass plant response rating (bamyardgrass; [14]): 0
- Barnyardgrass plant response rating (bamyardgrass; [15]): 0
- Plant response rating, Barnyardgrass (bamyardgrass; [16]): 1
- Barnyardgrass plant response rating (bamyardgrass; [17]): 1
- Plant response rating, Barnyardgrass (bamyardgrass; [18]): 5
- Barnyardgrass plant response rating (bamyardgrass; Rate 500 g/ha, listed under Postemergence (flood test species), scale 0 to 10, 0 no effect, 10 complete control): 9
